Assay results as given in PubChem BioAssay (NCI).
Where “and” joins values, the source holds several entries; their conditions need not be identical. Equal entries are not always repeated.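 Exposure lasted 48 hours, with cells grown in 96-well plates and compounds tested at five concentrations. Here, GI50 denotes the concentration required for 50% inhibition of growth. At the TGI there is no net growth.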

Tests used:
Test in all cases: NCI tumour cell line growth inhibition, 48 h
[1] = tested on: SNB-75 CNS
[2] = tested on: UACC-62 melanoma
[3] = tested on: NCI-H23 lung
[4] = tested on: RXF 393 renal
[5] = tested on: A498 renal
[6] = tested on: TK-10 renal
[7] = tested on: SK-OV-3 ovarian
[8] = tested on: OVCAR-5 ovarian
[9] = tested on: SK-MEL-5 melanoma
[10] = tested on: T-47D breast

Compound: CCOC12OC3=C(CC1CC1=C(CCC1=O)O2)C(=O)CC3 (configuration not stated)
- TGI [1]: > 100 µM
- TGI [2]: > 100 µM
- TGI [3]: > 100 µM
- TGI [4]: > 100 µM
- TGI [5]: > 100 µM
- TGI [6]: > 100 µM
- TGI [7]: > 100 µM
- TGI [8]: > 100 µM
- TGI [9]: > 100 µM

Compound: COC(=O)/C=C1/CCC2[C@@H](C(=O)CC3[C@]2(C)CCC[C@@]3(C)C(=O)OC)C1C (some centres not stated)
- TGI [2]: 30.1 µM
- TGI [3]: 31.6 µM
- TGI [5]: 34.4 µM
- TGI [6]: 36.1 µM
- TGI [7]: 51.6 µM
- TGI [8]: 39.4 µM
- TGI [9]: 20.8 µM

Compound: O=c1/c(=C/c2cccc([N+](=O)[O-])c2)sc2nc3ccccc3n12
- TGI [1]: > 100 µM
- TGI [2]: > 100 µM
- TGI [3]: > 100 µM
- TGI [4]: > 100 µM
- TGI [5]: > 100 µM
- TGI [6]: > 100 µM
- TGI [7]: > 100 µM
- TGI [8]: > 100 µM

Compound: Cc1ccc(NC(=O)C(=O)C2C(=O)N(c3ccccc3)N=C2N)cc1C (configuration not stated)
- TGI [1]: > 100 µM
- TGI [2]: > 100 µM
- TGI [3]: > 100 µM
- TGI [5]: > 100 µM
- TGI [6]: > 100 µM
- TGI [7]: > 100 µM
- TGI [8]: > 100 µM
- TGI [9]: > 100 µM

Compound: CCOC(=O)C12CCCC1(O)N(NC(=O)c1ccccc1)C(C)=C2C(=O)OC (configuration not stated)
- TGI [2]: > 100 µM
- TGI [3]: > 100 µM
- TGI [5]: > 100 µM
- TGI [6]: > 100 µM
- TGI [7]: > 100 µM
- TGI [8]: > 100 µM

Compound: COc1ccc2c(=O)c(C)c(-c3ccccc3)oc2c1CN(C)C
- TGI [1]: > 100 µM and 98.4 µM
- TGI [2]: > 100 µM
- TGI [3]: > 100 µM
- TGI [4]: > 100 µM
- TGI [5]: > 100 µM
- TGI [6]: > 100 µM
- TGI [7]: > 100 µM
- TGI [8]: > 100 µM
- TGI [9]: > 100 µM

Compound: COc1ccc(C(=O)OCC2OC(n3cnc4c(=S)nc[nH]c43)C(OC(=O)c3ccc(OC)cc3)C2OC(=O)c2ccc(OC)cc2)cc1 (configuration not stated)
- TGI [1]: 77 µM
- TGI [2]: > 100 µM
- TGI [3]: > 100 µM
- TGI [6]: > 100 µM
- TGI [8]: > 100 µM
- TGI [9]: > 100 µM

Compound: Cc1cc(O)cc2oc(=O)c3c(O)cc(O)cc3c12
- TGI [1]: 32.2 µM
- TGI [2]: 81 µM
- TGI [3]: 48 µM
- TGI [4]: 54.5 µM
- TGI [5]: > 100 µM
- TGI [6]: > 100 µM
- TGI [7]: 45.5 µM
- TGI [8]: > 100 µM
- TGI [9]: > 100 µM

Compound: CC(C)=CCC[C@H](C)[C@@H]1CC[C@]2(C)C3CC[C@]4(OC4(C)C)C(CCCO)[C@]3(C)CC[C@@]12C (some centres not stated)
- GI50 [1]: 29.8 µM
- TGI [1]: 58 µM
- GI50 [2]: 13.6 µM
- TGI [2]: 30.4 µM
- GI50 [3]: 18.7 µM
- TGI [3]: 40.2 µM
- GI50 [4]: 18.3 µM
- TGI [4]: 37.6 µM
- GI50 [10]: 17.4 µM
- TGI [10]: 45.6 µM
- GI50 [5]: 20.1 µM
- TGI [5]: 37.2 µM
- GI50 [6]: 17.5 µM
- TGI [6]: 38.2 µM
- GI50 [8]: 21 µM
- TGI [8]: 47.1 µM
- GI50 [9]: 22.7 µM
- TGI [9]: 42.9 µM

Compound: CC1=C(C(=O)Nc2ccc(F)c(Cl)c2)C(c2ccccc2Cl)NC(=S)N1 (configuration not stated)
- GI50 [2]: 9.63 µM
- TGI [2]: > 50 µM
- GI50 [3]: > 50 µM
- TGI [3]: > 50 µM
- GI50 [4]: 16.9 µM
- TGI [4]: 37.7 µM
- GI50 [10]: > 50 µM
- TGI [10]: > 50 µM
- GI50 [5]: 12.9 µM
- TGI [5]: 48.1 µM
- GI50 [6]: 48.8 µM
- TGI [6]: > 50 µM
- GI50 [7]: > 50 µM
- TGI [7]: > 50 µM
- GI50 [8]: > 50 µM
- TGI [8]: > 50 µM
- GI50 [9]: 12.4 µM
- TGI [9]: > 50 µM

Compound: Oc1ccccc1-c1nn(CNc2cccc(Cl)c2)c(=S)o1
- GI50 [2]: 41.5 µM
- TGI [2]: > 100 µM
- GI50 [3]: 22.8 µM
- TGI [3]: 71.8 µM
- GI50 [4]: 82.4 µM
- TGI [4]: > 100 µM
- GI50 [10]: 28.7 µM
- TGI [10]: > 100 µM
- GI50 [5]: 60.1 µM
- TGI [5]: > 100 µM
- GI50 [6]: 13.1 µM
- TGI [6]: 86.3 µM
- GI50 [7]: > 100 µM
- TGI [7]: > 100 µM
- GI50 [8]: > 100 µM
- TGI [8]: > 100 µM
- GI50 [9]: 89.2 µM
- TGI [9]: > 100 µM

Compound: CCOC(=O)/C(O)=C(/c1n[nH]c(=O)c2ccccc12)[N+](=O)[O-]
- TGI [1]: > 100 µM
- TGI [2]: > 100 µM
- TGI [3]: > 100 µM
- TGI [4]: > 100 µM
- TGI [5]: > 100 µM
- TGI [6]: > 100 µM
- TGI [7]: > 100 µM
- TGI [8]: > 100 µM
- TGI [9]: > 100 µM

Compound: Cc1[nH]c2ccccc2c1C1Cc2ccccc2N1C(=O)/C=C/C=C/c1ccccc1 (configuration not stated)
- TGI [1]: > 100 µM
- TGI [2]: > 100 µM
- TGI [3]: > 100 µM
- TGI [4]: > 100 µM
- TGI [5]: > 100 µM
- TGI [6]: > 100 µM
- TGI [7]: > 100 µM
- TGI [8]: > 100 µM
- TGI [9]: > 100 µM

Compound: CC(=O)[CH-]C(=O)c1ccccc1.CC(=O)[CH-]C(=O)c1ccccc1.CC[O-].CC[O-].[Zr+4]
- GI50 [1]: > 100 µM
- TGI [1]: > 100 µM
- GI50 [2]: > 100 µM
- TGI [2]: > 100 µM
- GI50 [3]: > 100 µM
- TGI [3]: > 100 µM
- GI50 [4]: > 100 µM
- TGI [4]: > 100 µM
- GI50 [7]: > 100 µM
- TGI [7]: > 100 µM
- GI50 [8]: > 100 µM
- TGI [8]: > 100 µM
- GI50 [9]: > 100 µM
- TGI [9]: > 100 µM

Compound: CN(C)CCNC(=O)c1cc2ccccc2c2nc3ccccc3nc12
- TGI [1]: 4.26 µM
- TGI [2]: 7.3 µM
- TGI [3]: 2.69 µM
- TGI [4]: 2.33 µM
- TGI [5]: 2.4 µM
- TGI [6]: 7.17 µM
- TGI [7]: > 31.6 µM
- TGI [8]: 5.64 µM
- TGI [9]: 5.5 µM

Compound: Cc1c(Cl)ccc2c1NC(=O)C2(O)C(C(=O)c1ccccc1)c1ccccc1 (configuration not stated)
- TGI [1]: > 100 µM
- TGI [2]: 46 µM
- TGI [3]: 42.2 µM
- TGI [4]: 73.8 µM
- TGI [5]: 70.1 µM
- TGI [6]: > 100 µM
- TGI [7]: > 100 µM
- TGI [8]: > 100 µM
- TGI [9]: 60 µM

Compound: O=S1c2ccccc2N=C(c2ccc3ccccc3c2)CC1C1=CC=CCC1 (configuration not stated)
- TGI [1]: 50.6 µM
- TGI [2]: 34.5 µM
- TGI [3]: 30.6 µM
- TGI [4]: 30.4 µM
- TGI [6]: 51.7 µM
- TGI [7]: 50.4 µM
- TGI [8]: 40.6 µM
- TGI [9]: 30.4 µM

Compound: COc1cc(/C=C2/C(=O)N(C(=O)OC(C)C)C(Cc3cc(OC)c(OC)c(C)c3OC)C(=O)N2Cc2ccccc2)c(OC)c(C)c1OC (configuration not stated)
- TGI [1]: > 100 µM
- TGI [2]: > 100 µM
- TGI [3]: > 100 µM
- TGI [4]: > 100 µM
- TGI [5]: > 100 µM
- TGI [6]: > 100 µM
- TGI [7]: > 100 µM
- TGI [8]: > 100 µM
- TGI [9]: > 100 µM

Compound: CCOC(C)C(/C=N/NC(N)=S)=NNC(N)=S (configuration not stated)
- TGI [1]: > 89.4 µM
- TGI [2]: > 100 µM
- TGI [3]: > 100 µM
- TGI [5]: 85.2 µM
- TGI [6]: > 100 µM
- TGI [7]: > 100 µM
- TGI [8]: > 100 µM
- TGI [9]: > 100 µM

Compound: [O-]c1c2c(nn1-c1ccccc1)c1ccccc1c[n+]2Cc1ccccc1
- TGI [1]: > 100 µM
- TGI [2]: > 100 µM
- TGI [3]: > 100 µM
- TGI [4]: 7.33 µM
- TGI [6]: > 100 µM
- TGI [7]: > 100 µM
- TGI [8]: > 100 µM
- TGI [9]: > 100 µM

Compound: O=S(=O)(/C=C/c1ccc(Cl)cc1Cl)Cc1ccccc1CS(=O)(=O)/C=C/c1ccc(Cl)cc1Cl
- TGI [1]: > 100 µM
- TGI [2]: > 100 µM
- TGI [3]: > 100 µM
- TGI [4]: > 100 µM
- TGI [5]: > 100 µM
- TGI [6]: > 100 µM
- TGI [7]: > 100 µM
- TGI [8]: > 100 µM
